In ChEMBL document CHEMBL4000244, “Probing A-form DNA: A fluorescent aminosugar probe and dual recognition by anthraquinone-neomycin conjugates” (Bioorg Med Chem, 2017):
Activity calls are given as the source filed them. The calls are words filed in the database; no cut-off is given here.

Columns and labels:
[1] = Binding affinity to 5'-GCGCGCGG-3' DNA hairpin assessed as change in fluorescence intensity at 1 uM after 45 mins by fluorescence quenching analysis relative to control
[2] = Binding affinity to 5'-CCGCGGGC-3' DNA hairpin assessed as change in fluorescence intensity at 1 uM after 45 mins by fluorescence quenching analysis relative to control
[3] = Binding affinity to 5'-GGCGCCCG-3' DNA hairpin assessed as change in fluorescence intensity at 1 uM after 45 mins by fluorescence quenching analysis relative to control
[4] = Binding affinity to 5'-CGGCGGGC-3' DNA hairpin assessed as change in fluorescence intensity at 1 uM after 45 mins by fluorescence quenching analysis relative to control
[5] = Binding affinity to 5'-CCCGGGCG-3' DNA hairpin assessed as change in fluorescence intensity at 1 uM after 45 mins by fluorescence quenching analysis relative to control
[6] = Binding affinity to 5'-GGCCCCGG-3' DNA hairpin assessed as change in fluorescence intensity at 1 uM after 45 mins by fluorescence quenching analysis relative to control
[7] = Binding affinity to 5'-CGGGGCCG-3' DNA hairpin assessed as change in fluorescence intensity at 1 uM after 45 mins by fluorescence quenching analysis relative to control
[8] = Binding affinity to 5'-CGGCCGGC-3' DNA hairpin assessed as change in fluorescence intensity at 1 uM after 45 mins by fluorescence quenching analysis relative to control
[9] = Binding affinity to 5'-GCGCCGGC-3' DNA hairpin assessed as change in fluorescence intensity at 1 uM after 45 mins by fluorescence quenching analysis relative to control
[10] = Binding affinity to 5'-CGCGCCCG-3' DNA hairpin assessed as change in fluorescence intensity at 1 uM after 45 mins by fluorescence quenching analysis relative to control
[11] = Binding affinity to 5'-GCCGGGGG-3' DNA hairpin assessed as change in fluorescence intensity at 1 uM after 45 mins by fluorescence quenching analysis relative to control
[12] = Binding affinity to 5'-GCGCGCGC-3' DNA hairpin assessed as change in fluorescence intensity at 1 uM after 45 mins by fluorescence quenching analysis relative to control
[13] = Binding affinity to 5'-GGGGCGCC-3' DNA hairpin assessed as change in fluorescence intensity at 1 uM after 45 mins by fluorescence quenching analysis relative to control
[14] = Binding affinity to 5'-GCGCCGCC-3' DNA hairpin assessed as change in fluorescence intensity at 1 uM after 45 mins by fluorescence quenching analysis relative to control
[15] = Binding affinity to 5'-GGGGGCCC-3' DNA hairpin assessed as change in fluorescence intensity at 1 uM after 45 mins by fluorescence quenching analysis relative to control
[16] = Binding affinity to 5'-GCGCGGCC-3' DNA hairpin assessed as change in fluorescence intensity at 1 uM after 45 mins by fluorescence quenching analysis relative to control
[17] = Binding affinity to 5'-GCGGCCGC-3' DNA hairpin assessed as change in fluorescence intensity at 1 uM after 45 mins by fluorescence quenching analysis relative to control
[18] = Binding affinity to 5'-GCCGCGGG-3' DNA hairpin assessed as change in fluorescence intensity at 1 uM after 45 mins by fluorescence quenching analysis relative to control
[19] = Binding affinity to 5'-GCCCGCCC-3' DNA hairpin assessed as change in fluorescence intensity at 1 uM after 45 mins by fluorescence quenching analysis relative to control
[20] = Binding affinity to d(G4C4)2 DNA major groove assessed as stabilization of A-from DNA conformation by measuring induction of sharper band at 265 nanometer at drug:DNA molar ratio of 1:1 after 30 mins by CD spectroscopic method
[21] = Binding affinity to 5'-CCCCGGCC-3' DNA hairpin assessed as change in fluorescence intensity at 1 uM after 45 mins by fluorescence quenching analysis relative to control
[22] = Binding affinity to 5'-CCCCGCCC-3' DNA hairpin assessed as change in fluorescence intensity at 1 uM after 45 mins by fluorescence quenching analysis relative to control
[23] = Binding affinity to 5'-GGCCGGGG-3' DNA hairpin assessed as change in fluorescence intensity at 1 uM after 45 mins by fluorescence quenching analysis relative to control
[24] = Binding affinity to 5'-GGCGGCCC-3' DNA hairpin assessed as change in fluorescence intensity at 1 uM after 45 mins by fluorescence quenching analysis relative to control
[25] = Binding affinity to 5'-GCGCGCCG-3' DNA hairpin assessed as change in fluorescence intensity at 1 uM after 45 mins by fluorescence quenching analysis relative to control
[26] = Binding affinity to 5'-GGGCCCCC-3' DNA hairpin assessed as change in fluorescence intensity at 1 uM after 45 mins by fluorescence quenching analysis relative to control
[27] = Binding affinity to 5'-GGGGCGGG-3' DNA hairpin assessed as change in fluorescence intensity at 1 uM after 45 mins by fluorescence quenching analysis relative to control
[28] = Binding affinity to 5'-GGCGGGGG-3' DNA hairpin assessed as change in fluorescence intensity at 1 uM after 45 mins by fluorescence quenching analysis relative to control
[29] = Binding affinity to 5'-CGCCGCCG-3' DNA hairpin assessed as change in fluorescence intensity at 1 uM after 45 mins by fluorescence quenching analysis relative to control
[30] = Binding affinity to 5'-CCCGCGGC-3' DNA hairpin assessed as change in fluorescence intensity at 1 uM after 45 mins by fluorescence quenching analysis relative to control
[31] = Binding affinity to 5'-CGGCGCGG-3' DNA hairpin assessed as change in fluorescence intensity at 1 uM after 45 mins by fluorescence quenching analysis relative to control
[32] = Binding affinity to 5'-GGGCCCGC-3' DNA hairpin assessed as change in fluorescence intensity at 1 uM after 45 mins by fluorescence quenching analysis relative to control
[33] = Binding affinity to 5'-CCCGCCGC-3' DNA hairpin assessed as change in fluorescence intensity at 1 uM after 45 mins by fluorescence quenching analysis relative to control
[34] = Binding affinity to 5'-CGGGCGGG-3' DNA hairpin assessed as change in fluorescence intensity at 1 uM after 45 mins by fluorescence quenching analysis relative to control
[35] = Binding affinity to 5'-CCGCCGGG-3' DNA hairpin assessed as change in fluorescence intensity at 1 uM after 45 mins by fluorescence quenching analysis relative to control
[36] = Binding affinity to 5'-GGCGCGCC-3' DNA hairpin assessed as change in fluorescence intensity at 1 uM after 45 mins by fluorescence quenching analysis relative to control

**Q.** With `NCC1O[C@H](O[C@H]2[C@@H](O)[C@H](O[C@@H]3[C@@H](O)[C@H](N)C[C@H](N)[C@H]3O[C@H]3O[C@H](CN)[C@@H](O)[C@H](O)[C@H]3N)O[C@@H]2CSCCNC(=O)CCSCC(=O)Nc2ccc(-c3c4ccc(=O)cc-4oc4cc(O)ccc34)c(C(=O)O)c2)[C@H](N)[C@@H](O)[C@@H]1O` (stereo partly specified) as the compound, how does the Activity [1] read?
**A.** 51.2%

**Q.** And the Activity [2]?
**A.** 45.7%

**Q.** What about the Activity [3] of the same compound?
**A.** 43.7%

**Q.** What about the Activity [4] of the same compound?
**A.** 43.1%

**Q.** What about the Activity [5] of the same compound?
**A.** 39%

**Q.** What about the Activity [6] of the same compound?
**A.** 20.2%

**Q.** And the Activity [7]?
**A.** 41.1%

**Q.** And the Activity [8]?
**A.** 44.9%

**Q.** What about the Activity [9] of the same compound?
**A.** 55.1%

**Q.** And the Activity [10]?
**A.** 48.8%

**Q.** What about the Activity [11] of the same compound?
**A.** 42.5%

**Q.** What about the Activity [12] of the same compound?
**A.** 45.2%

**Q.** What about the Activity [13] of the same compound?
**A.** 51.4%

**Q.** What about the Activity [14] of the same compound?
**A.** 50.4%

**Q.** And the Activity [15]?
**A.** 34.4%

**Q.** And the Activity [16]?
**A.** 50.4%

**Q.** What about the Activity [17] of the same compound?
**A.** 54.5%

**Q.** And the Activity [18]?
**A.** 52.7%

**Q.** What about the Activity [19] of the same compound?
**A.** 47.8%

**Q.** What about the Activity [20] of the same compound?
**A.** Active

**Q.** And the Activity [21]?
**A.** 37.6%

**Q.** And the Activity [22]?
**A.** 45.7%

**Q.** And the Activity [23]?
**A.** 38.1%

**Q.** And the Activity [24]?
**A.** 41.2%

**Q.** And the Activity [25]?
**A.** 44.2%

**Q.** What about the Activity [26] of the same compound?
**A.** 15%

**Q.** What about the Activity [27] of the same compound?
**A.** 43.6%

**Q.** What about the Activity [28] of the same compound?
**A.** 41.5%

**Q.** And the Activity [29]?
**A.** 48.1%

**Q.** And the Activity [30]?
**A.** 45.4%

**Q.** What about the Activity [31] of the same compound?
**A.** 43.2%

**Q.** What about the Activity [32] of the same compound?
**A.** 30.6%

**Q.** And the Activity [33]?
**A.** 48.9%

**Q.** And the Activity [34]?
**A.** 50.6%

**Q.** And the Activity [35]?
**A.** 43.7%

**Q.** What about the Activity [36] of the same compound?
**A.** 49%
